Laboratory results taken from US7834023B2 (Portola Pharmaceuticals, Inc., priority 2006, dated 2010).

Legend:
P2Y12 receptor = biological target: T1, P2Y12 receptor (Homo sapiens, UniProt Q9H244); assay: platelet ADP receptor binding assay (ARB): inhibition of [3H]2-MeS-ADP binding to platelets; conditions: [3H]2-MeS-ADP binding to apyrase-washed human platelets
T1 construct: endogenous in cells; host or cells: human platelets (outdated from blood banks or fresh), apyrase-washed, whole
Method in brief: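 Apyrase-washed human platelets (1×10^8 per well) were preincubated 5 min with serial compound dilutions in Hepes-Tyrode's/0.1% BSA/0.6% DMSO, then incubated 15 min at room temperature with 1 nM [3H]2-MeS-ADP. Filter-bound radioactivity gave specific binding (nonspecific: 10 μM 2-MeS-ADP), and IC50s came from non-linear regression.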

[1] = system: human platelet-rich plasma (PRP); assay: PRP assay: inhibition of ADP-mediated platelet aggregation in vitro; type: cell-based; conditions: ADP-induced aggregation
Procedure: The effect of testing the compound according to the invention on ADP-induced human platelet aggregation was assessed in a 96-well microtiter assay (see generally the procedures in Jantzen, H. M. et al. (1999) Thromb. Hemost. 81:111-117) or standard cuvette light transmittance aggregometry using either human platelet-rich plasma (PRP) or human washed platelets.
For preparation of human platelet-rich plasma for aggregation assays, human venous blood was collected from healthy, drug-free volunteers into 0.38% sodium citrate (0.013 M, pH 7.0 final). Platelet-rich plasma (PRP) is prepared by centrifugation of whole blood at 160×g for 20 minutes at room temperature. The PRP layer is removed, transferred to a new tube, and the platelet count is adjusted, if necessary, to achieve a platelet concentration of ˜3×10^8 platelets/ml using platelet-poor plasma (PPP). PPP is prepared by centrifugation of the remaining blood sample (after removal of PRP) for 20 minutes at 800×g. This preparation of PRP can subsequently be used for aggregation assays in either a 96-well plate or standard cuvette aggregometry.
For cuvette light transmittance aggregation assays, serial dilutions (1:3) of test compounds were prepared in 100% DMSO in a 96 well V-bottom plate (final DMSO concentration in the cuvette was 0.6%). The test compound (3 μl of serial dilutions in DMSO) was preincubated with PRP for 30-45 seconds prior to initiation of aggregation reactions, which were performed in a ChronoLog aggregometer by addition of agonist (5 or 10 μM ADP) to 490 μL of PRP at 37° C. In some cases, light transmittance aggregometry was performed using 490 μL of washed platelets (prepared as described above) at 37° C., and aggregation was initiated by addition of 5 μM ADP and 0.5 mg/ml human fibrinogen (American Diagnostics, Inc., Greenwich, Conn.). The aggregation reaction is recorded for ˜5 min, and maximum extent of aggregation is determined by the difference in extent of aggregation at baseline, compared to the maximum aggregation that occurs during the five minute period of the assay. Inhibition of aggregation was calculated as the maximum aggregation observed in the presence of inhibitor, compared to that in the absence of inhibitor. IC50s were derived by non-linear regression analysis using the Prism software (GraphPad, San Diego, Calif.).
Inhibition of ADP-dependent aggregation was also determined in 96-well flat-bottom microtiter plates using a microtiter plate shaker and plate reader similar to the procedure described by Frantantoni et al., Am. J. Clin. Pathol. 94, 613 (1990). All steps are performed at room temperature. For 96-well plate aggregation using platelet-rich plasma (PRP), the total reaction volume of 0.2 ml/well includes 180 μl of PRP (˜3×10^8 platelets/ml, see above), 6 μl of either serial dilution of test compounds in 20% DMSO or buffer (for control wells), and 10 μl of 20×ADP agonist solution (100 μM). The OD of the samples is then determined at 450 nm using a microtiter plate reader (Softmax, Molecular Devices, Menlo Park, Calif.) resulting in the 0 minute reading. The plates are then agitated for 5 min on a microtiter plate shaker and the 5 minute reading is obtained in the plate reader. Aggregation is calculated from the decrease of OD at 450 nm at t=5 minutes compared to t=0 minutes and is expressed as % of the decrease in the ADP control samples after correcting for changes in the unaggregated control samples. IC50s were derived by non-linear regression analysis.

T1 sequence (Q9H244 whole entry): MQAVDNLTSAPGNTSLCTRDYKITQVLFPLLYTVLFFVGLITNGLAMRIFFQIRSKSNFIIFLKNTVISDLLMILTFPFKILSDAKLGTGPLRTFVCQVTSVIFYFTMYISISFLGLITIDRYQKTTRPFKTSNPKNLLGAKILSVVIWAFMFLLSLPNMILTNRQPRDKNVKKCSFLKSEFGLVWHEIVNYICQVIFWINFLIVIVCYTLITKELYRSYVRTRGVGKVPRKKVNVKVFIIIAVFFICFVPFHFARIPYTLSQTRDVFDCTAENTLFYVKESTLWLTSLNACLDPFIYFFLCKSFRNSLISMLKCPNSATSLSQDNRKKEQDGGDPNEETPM

| SMILES | IC50 (P2Y12 receptor) | IC50 ([1]; Homo sapiens, Platelet) | IC50 [1] |
| --- | --- | --- | --- |
| CNc1cc2c(cc1F)C(=O)N(c1ccc(C(=O)NC(CC(=O)O)c3ccc(Cl)s3)cc1)CO2 (stereo not shown) [Compound 79, 3-(5-chlorothiophen-2-yl)-3-(4-(6-fluoro-7-(methylamino)-4-oxo-2H-benzo[e][1,3]oxazin-3(4H)-yl)benzamido)propanoic acid] | 0.05 to 0.5 µM | < 10 µM | – |
| O=C(NCc1ccc(Cl)s1)c1ccc(-n2c(=O)[nH]c3cc(NCc4ccc(F)cc4)ccc3c2=O)cc1 [Compound 1, N-((5-chlorothiophen-2-yl)methyl)-4-(7-(4-fluorobenzylamino)-2,4-dioxo-1,2-dihydroquinazolin-3(4H)-yl)benzamide] | 0.05 to 0.5 µM | > 30 µM | – |
| CNc1cc2[nH]c(=O)n(-c3ccc(C(=O)NC(c4noc(=O)[nH]4)c4ccc(Cl)s4)cc3)c(=O)c2cc1F (stereo not shown) [Compound 21, N-((5-chlorothiophen-2-yl)(5-oxo-4,5-dihydro-1,2,4-oxadiazol-3-yl)methyl)-4-(6-fluoro-7-(methylamino)-2,4-dioxo-1,2-dihydroquinazolin-3(4H)-yl)benzamide] | < 0.05 µM | < 10 µM | – |
| CNc1cc2[nH]c(=O)n(-c3ccc(C(=O)N(CC(=O)O)Cc4ccc(Cl)s4)cc3)c(=O)c2cc1F [Compound 6, 2-(N-((5-chlorothiophen-2-yl)methyl)-4-(6-fluoro-7-(methylamino)-2,4-dioxo-1,2-dihydroquinazolin-3(4H)-yl)benzamido)acetic acid] | 0.05 to 0.5 µM | > 30 µM | – |
| CNc1cc2[nH]c(=O)n(-c3ccc(C(=O)N[C@H](c4noc(=O)[nH]4)c4ccc(Cl)s4)cc3)c(=O)c2cc1F [Compound 46, (R)-N-((5-chlorothiophen-2-yl)(5-oxo-4,5-dihydro-1,2,4-oxadiazol-3-yl)methyl)-4-(6-fluoro-7-(methylamino)-2,4-dioxo-1,2-dihydroquinazolin-3(4H)-yl)benzamide] | 0.05 to 0.5 µM | 10 to 30 µM | – |
| CNc1cc2[nH]c(=O)n(-c3ccc(C(=O)N[C@@H](c4noc(=O)[nH]4)c4ccc(Cl)s4)cc3)c(=O)c2cc1F [Compound 45, (S)-N-((5-chlorothiophen-2-yl)(5-oxo-4,5-dihydro-1,2,4-oxadiazol-3-yl)methyl)-4-(6-fluoro-7-(methylamino)-2,4-dioxo-1,2-dihydroquinazolin-3(4H)-yl)benzamide] | < 0.05 µM | < 10 µM | – |
| CNc1cc2[nH]c(=O)n(-c3ccc(C(=O)NC(c4cccc(Cl)c4)c4nnn[nH]4)cc3)c(=O)c2cc1F (stereo not shown) [Compound 11, N-((3-chlorophenyl)(1H-tetrazol-5-yl)methyl)-4-(6-fluoro-7-(methylamino)-2,4-dioxo-1,2-dihydroquinazolin-3(4H)-yl)benzamide] | 0.05 to 0.5 µM | > 30 µM | – |
| CNc1cc2c(cc1F)C(=O)N(c1ccc(C(=O)NC(c3noc(=S)[nH]3)c3ccc(Cl)s3)cc1)CO2 (stereo not shown) [Compound 75, N-((5-chlorothiophen-2-yl)(5-thioxo-4,5-dihydro-1,2,4-oxadiazol-3-yl)methyl)-4-(6-fluoro-7-(methylamino)-4-oxo-2H-benzo[e][1,3]oxazin-3(4H)-yl)benzamide] | < 0.05 µM | 10 to 30 µM | – |
| CNc1cc2ccn(-c3ccc(C(=O)NC(C(=O)O)c4ccc(Cl)s4)cc3)c(=O)c2cc1F (stereo not shown) [Compound 90, 2-(5-chlorothiophen-2-yl)-2-(4-(7-fluoro-6-(methylamino)-1-oxoisoquinolin-2(1H)-yl)benzamido)acetic acid] | < 0.05 µM | 10 to 30 µM | – |
| CNc1cc2c(cc1F)C(=O)N(c1ccc(C(=O)N[C@@H](C(=O)O)c3ccc(Cl)s3)cc1)CO2 [Compound 62, (S)-2-(5-chlorothiophen-2-yl)-2-(4-(6-fluoro-7-(methylamino)-4-oxo-2H-benzo[e][1,3]oxazin-3(4H)-yl)benzaamido)acetic acid] | < 0.05 µM | > 30 µM | – |
| CNc1cc2c(cc1F)C(=O)N(c1ccc(C(=O)NC(c3nnn[nH]3)c3ccc(Cl)s3)cc1)CO2 (stereo not shown) [Compound 54, N-((5-chlorothiophen-2-yl)(1H-tetrazol-5-yl)methyl)-4-(6-fluoro-7-(methylamino)-4-oxo-2H-benzo[e][1,3]oxazin-3(4H)-yl)benzamide] | < 0.05 µM | 10 to 30 µM | – |
| CNc1cc2c(cc1F)C(=O)N(c1ccc(CNC(CC(=O)O)c3ccc(Cl)s3)cc1)CO2 (stereo not shown) [Compound 106, 3-(5-chlorothiophen-2-yl)-3-(4-(6-fluoro-7-(methylamino)-4-oxo-2H-benzo[e][1,3]oxazin-3(4H)-yl)benzylamino)propanoic acid] | 0.05 to 0.5 µM | > 30 µM | – |
| CNc1cc2[nH]c(=O)n(-c3ccc(C(=O)NC(C(=O)O)c4ccc(Cl)s4)cc3)c(=O)c2cc1F (stereo not shown) [Compound 5, 2-(5-chlorothiophen-2-yl)-2-(4-(6-fluoro-7-(methylamino)-2,4-dioxo-1,2-dihydroquinazolin-3(4H)-yl)benzamido)acetic acid] | < 0.05 µM | – | 10 to 30 µM |
| CNc1cc2[nH]c(=O)n(-c3ccc(C(=O)NC(c4nnn[nH]4)c4ccc(Cl)s4)cc3)c(=O)c2cc1F (stereo not shown) [Compound 7, N-((5-chlorothiophen-2-yl)(1H-tetrazol-5yl)methyl)-4-(6-fluoro-7-(methylamino)-2,4-dioxo-1,2-dihydroquinazolin-3(4H)-yl)benzamide] | < 0.05 µM | < 10 µM | – |
| CNc1cc2ccn(-c3ccc(C(=O)NC(c4nnn[nH]4)c4ccc(Cl)s4)cc3)c(=O)c2cc1F (stereo not shown) [Compound 91, N-((5-chlorothiophen-2-yl)(1H-tetrazol-5-yl)methyl)-4-(7-fluoro-6-(methylamino)-1-oxoisoquinolin-2(1H)-yl)benzamide] | < 0.05 µM | 10 to 30 µM | – |
| CNc1cc2c(cc1F)C(=O)N(c1ccc(C(=O)NC(C(=O)O)c3ccc(Cl)s3)cc1)CO2 (stereo not shown) [Compound 56, 2-(5-chlorothiophen-2-yl)-2-(4-(6-fluoro-7-(methylamino)-4-oxo-2H-benzo[e][1,3]oxazin-3(4H)-yl)benzamido)acetic acid] | < 0.05 µM | 10 to 30 µM | – |
| CNc1cc2c(cc1F)C(=O)N(c1ccc(C(=O)NC(C(=O)O)c3cccc(Cl)c3)cc1)CO2 (stereo not shown) [Compound 81, 2-(3-chlorophenyl)-2-(4-(6-fluoro-7-(methylamino)-4-oxo-2H-benzo[e][1,3]oxazin-3(4H)-yl)benzamido)acetic acid] | 0.05 to 0.5 µM | > 30 µM | – |
| CNc1cc2c(cc1F)C(=O)N(c1ccc(C(=O)NC(c3nnn[nH]3)c3ccc(C)s3)cc1)CO2 (stereo not shown) [Compound 61, 4-(6-fluoro-7-(methylamino)-4-oxo-2H-benzo[e][1,3]oxazin-3(4H)-yl)-N-((5-methylthiophen-2-yl)(1H-tetrazol-5-yl)methyl)benzamide] | < 0.05 µM | 10 to 30 µM | – |
| CNc1cc2c(cc1F)C(=O)N(c1ccc(C(=O)NC(c3cccc(Cl)c3)c3nnn[nH]3)cc1)CO2 (stereo not shown) [Compound 80, N-((3-chlorophenyl)(1H-tetrazol-5-yl)methyl)-4-(6-fluoro-7-(methylamino)-4-oxo-2H-benzo[e][1,3]oxazin-3(4H)-yl)benzamide] | 0.05 to 0.5 µM | > 30 µM | – |
| CNc1cc2[nH]c(=O)n(-c3ccc(C(=O)NC(C(N)=O)c4ccc(Cl)s4)cc3)c(=O)c2cc1F (stereo not shown) [Compound 47, N-(2-amino-1-(5-chlorothiophen-2-yl)-2-oxoethyl)-4-(6-fluoro-7-(methylamino)-2,4-dioxo-1,2-dihydroquinazolin-3(4H)-yl)benzamide] | 0.05 to 0.5 µM | < 10 µM | – |
